Earlier results in patent US20110123642A1 (priority 2008, published 2011).

## O=C(O)CN(CCN(CC(=O)O)CC(=O)O)CC(=O)O [EDTA, reference compound]
  pKa: 10.2

## O=C([O-])CC[C@@H](C(=O)[O-])N(CC(=O)[O-])CC(=O)[O-].[Na+].[Na+].[Na+].[Na+] [GLDA, L-glutamic acid-N,N-diacetic acid, tetrasodium salt]
  pKa: 9.4
  pKa^1: 9.4
  pKa^2: 5.0
  pKa^3: 3.5
  pKa^4: 2.6

## O=C(O)CN(CC(=O)O)CC(=O)O [NTA, reference compound]
  pKa: 9.7
